Results from BindingDB's records for doi:10.1021/jm00015a003 (Warner-Lambert, 1995).
Where a name gives a salt, the structure may show the parent alone. Numbered stars: 1 amine (or outer) side, 2 acyl side, 3 side chain; on linkers, the order of the positions; unused ones are H or OH. Square brackets hold non-standard residues; d marks the D form. Peptide text beside a SMILES is read from it. * marks the point of attachment. dDip = N[C@@H](C(=O)O)C(c1ccccc1)c1ccccc1; Dip = N[C@H](C(=O)O)C(c1ccccc1)c1ccccc1; Orn = NCCC[C@H](N)C(=O)O; CO = O=C([*:1])[*:2]; Tfa = O=C(C(F)(F)F)*

Assay: Inhibition of ET-1 stimulated arachidonic acid release in rabbit renal vascular smooth muscle cells

| IC50 | Structure (SMILES) |
| --- | --- |
| 450 nM | CC[C@H](C)[C@H](NC(=O)[C@H](CCC(=O)O)NC(=O)[C@H](CC(=O)O)NC(=O)[C@H](CC(C)C)NC(=O)[C@H](NC(C)=O)C(c1ccccc1)c1ccccc1)C(=O)N[C@@H](Cc1c[nH]c2ccccc12)C(=O)O [(S)-4-{(S)-2-[(S)-2-((S)-2-Acetylamino-3,3-diphenyl-propionylamino)-4-methyl-pentanoylamino]-3-carboxy-propionylamino}-4-{(1S,2S)-1-[(S)-1-carboxy-2-(1H-indol-3-yl)-ethylcarbamoyl]-2-methyl-butylcarbamoyl}-butyric acid] (Ac-[dDip]LDEIW-OH) |
| 280 nM | CC[C@H](C)[C@H](NC(=O)[C@H](CC(=O)O)NC(=O)[C@H](CC(C)C)NC(=O)[C@@H](NC(=O)NC)C(c1ccccc1)c1ccccc1)C(=O)N[C@H](C(=O)N[C@@H](Cc1c[nH]c2ccccc12)C(=O)O)[C@@H](C)CC [(S)-N-((1S,2S)-1-{(1S,2S)-1-[(S)-1-Carboxy-2-(1H-indol-3-yl)-ethylcarbamoyl]-2-methyl-butylcarbamoyl}-2-methyl-butyl)-3-{(S)-4-methyl-2-[(S)-2-(3-methyl-ureido)-3,3-diphenyl-propionylamino]-pentanoylamino}-succinamic acid] ({NHMe-CO}-[Dip]LDIIW-OH) |
| 430 nM | CC[C@H](C)[C@H](NC(=O)[C@H](CCC(=O)O)NC(=O)[C@H](CC(C)C)NC(=O)[C@@H](NC(C)=O)C(c1ccccc1)c1ccccc1)C(=O)N[C@H](C(=O)N[C@@H](Cc1c[nH]c2ccccc12)C(=O)O)[C@@H](C)CC [(S)-4-[(S)-2-((S)-2-Acetylamino-3,3-diphenyl-propionylamino)-4-methyl-pentanoylamino]-4-((1S,2S)-1-{(1S,2S)-1-[(S)-1-carboxy-2-(1H-indol-3-yl)-ethylcarbamoyl]-2-methyl-butylcarbamoyl}-2-methyl-butylcarbamoyl)-butyric acid] (Ac-[Dip]LEIIW-OH) |
| 130 nM | CC[C@H](C)[C@H](NC(=O)[C@H](CC(=O)O)NC(=O)[C@H](CCC(=O)O)NC(=O)[C@H](NC(C)=O)C(c1ccccc1)c1ccccc1)C(=O)N[C@H](C(=O)N[C@@H](Cc1c[nH]c2ccccc12)C(=O)O)[C@@H](C)CC [(S)-4-((S)-2-Acetylamino-3,3-diphenyl-propionylamino)-4-[(S)-2-carboxy-1-((1S,2S)-1-{(1S,2S)-1-[(S)-1-carboxy-2-(1H-indol-3-yl)-ethylcarbamoyl]-2-methyl-butylcarbamoyl}-2-methyl-butylcarbamoyl)-ethylcarbamoyl]-butyric acid] (Ac-[dDip]EDIIW-OH) |
| 1700 nM | CC[C@H](C)[C@H](NC(=O)[C@H](CC(=O)O)NC(=O)[C@H](CC(C)C)NC(=O)[C@@H](NC(=O)C(F)(F)F)C(c1ccccc1)c1ccccc1)C(=O)N[C@H](C(=O)N[C@@H](Cc1c[nH]c2ccccc12)C(=O)O)[C@@H](C)CC [(S)-N-((1S,2S)-1-{(1S,2S)-1-[(S)-1-Carboxy-2-(1H-indol-3-yl)-ethylcarbamoyl]-2-methyl-butylcarbamoyl}-2-methyl-butyl)-3-{(S)-2-[(S)-3,3-diphenyl-2-(2,2,2-trifluoro-acetylamino)-propionylamino]-4-methyl-pentanoylamino}-succinamic acid] (Tfa-[Dip]LDIIW-OH) |

More lines, now with the values behind:

| Structure (SMILES) | IC50 |
| --- | --- |
| CC[C@H](C)[C@H](NC(=O)[C@H](CC(=O)O)NC(=O)[C@H](CC(C)C)NC(=O)[C@H](NC(C)=O)C(c1ccccc1)c1ccccc1)C(=O)N[C@H](C(=O)N[C@@H](Cc1ccccc1)C(=O)O)[C@@H](C)CC [(S)-3-[(S)-2-((S)-2-Acetylamino-3,3-diphenyl-propionylamino)-4-methyl-pentanoylamino]-N-{(1S,2S)-1-[(1S,2S)-1-(1-carboxy-2-phenyl-ethylcarbamoyl)-2-methyl-butylcarbamoyl]-2-methyl-butyl}-succinamic acid] | > 10000 nM |
| CC[C@H](C)[C@H](NC(=O)[C@H](Cc1ccccc1)NC(=O)[C@H](CC(=O)O)NC(=O)[C@H](CC(C)C)NC(=O)[C@@H](NC(C)=O)C(c1ccccc1)c1ccccc1)C(=O)N[C@@H](Cc1c[nH]c2ccccc12)C(=O)O [(S)-3-[(S)-2-((S)-2-Acetylamino-3,3-diphenyl-propionylamino)-4-methyl-pentanoylamino]-N-((S)-1-{(1S,2S)-1-[(S)-1-carboxy-2-(1H-indol-3-yl)-ethylcarbamoyl]-2-methyl-butylcarbamoyl}-2-phenyl-ethyl)-succinamic acid] (Ac-[Dip]LDFIW-OH) | 160 nM |
| CC[C@H](C)[C@H](NC(=O)[C@H](C)NC(=O)[C@H](CC(=O)O)NC(=O)[C@H](CC(C)C)NC(=O)[C@H](NC(C)=O)C(c1ccccc1)c1ccccc1)C(=O)N[C@@H](Cc1c[nH]c2ccccc12)C(=O)O [(S)-3-[(S)-2-((S)-2-Acetylamino-3,3-diphenyl-propionylamino)-4-methyl-pentanoylamino]-N-((S)-1-{(1S,2S)-1-[(S)-1-carboxy-2-(1H-indol-3-yl)-ethylcarbamoyl]-2-methyl-butylcarbamoyl}-ethyl)-succinamic acid] | 420 nM |
| CC[C@H](C)[C@H](NC(=O)[C@@H](NC(=O)[C@H](CC(=O)O)NC(=O)[C@H](CC(C)C)NC(=O)[C@@H](NC(C)=O)C(c1ccccc1)c1ccccc1)C(C)C)C(=O)N[C@@H](Cc1c[nH]c2ccccc12)C(=O)O [(S)-3-[(S)-2-((S)-2-Acetylamino-3,3-diphenyl-propionylamino)-4-methyl-pentanoylamino]-N-((S)-1-{(1S,2S)-1-[(S)-1-carboxy-2-(1H-indol-3-yl)-ethylcarbamoyl]-2-methyl-butylcarbamoyl}-2-methyl-propyl)-succinamic acid] (Ac-[Dip]LDVIW-OH) | 29 nM |
| CC[C@H](C)[C@H](NC(=O)[C@H](CC(=O)O)NC(=O)[C@H](CC(C)C)NC(=O)[C@H](NC(C)=O)C(c1ccccc1)c1ccccc1)C(=O)N[C@@H](CC(C)C)C(=O)N[C@@H](Cc1c[nH]c2ccccc12)C(=O)O [(S)-3-[(S)-2-((S)-2-Acetylamino-3,3-diphenyl-propionylamino)-4-methyl-pentanoylamino]-N-((1S,2S)-1-{(S)-1-[(S)-1-carboxy-2-(1H-indol-3-yl)-ethylcarbamoyl]-3-methyl-butylcarbamoyl}-2-methyl-butyl)-succinamic acid] | 340 nM |
| CC[C@H](C)[C@H](NC(=O)[C@H](CC(=O)O)NC(=O)[C@H](CC(C)C)NC(=O)[C@H](NC(C)=O)C(c1ccccc1)c1ccccc1)C(=O)N[C@@H](Cc1ccccc1)C(=O)N[C@@H](Cc1c[nH]c2ccccc12)C(=O)O [(S)-3-[(S)-2-((S)-2-Acetylamino-3,3-diphenyl-propionylamino)-4-methyl-pentanoylamino]-N-((1S,2S)-1-{(S)-1-[(S)-1-carboxy-2-(1H-indol-3-yl)-ethylcarbamoyl]-2-phenyl-ethylcarbamoyl}-2-methyl-butyl)-succinamic acid] | > 10000 nM |
| CC[C@H](C)[C@H](NC(=O)[C@H](CC(=O)O)NC(=O)[C@H](CCCN)NC(=O)[C@@H](NC(C)=O)C(c1ccccc1)c1ccccc1)C(=O)N[C@H](C(=O)N[C@@H](Cc1c[nH]c2ccccc12)C(=O)O)[C@@H](C)CC [(S)-3-[(S)-2-((S)-2-Acetylamino-3,3-diphenyl-propionylamino)-5-amino-pentanoylamino]-N-((1S,2S)-1-{(1S,2S)-1-[(S)-1-carboxy-2-(1H-indol-3-yl)-ethylcarbamoyl]-2-methyl-butylcarbamoyl}-2-methyl-butyl)-succinamic acid] (Ac-[Dip][Orn]DIIW-OH) | 30 nM |
| CC[C@H](C)[C@H](NC(=O)[C@H](CC(=O)O)NC(=O)[C@H](CC(C)C)NC(=O)[C@@H](NC(C)=O)C(c1ccccc1)c1ccccc1)C(=O)N[C@@H](CCCCN)C(=O)N[C@@H](Cc1c[nH]c2ccccc12)C(=O)O [(S)-3-[(S)-2-((S)-2-Acetylamino-3,3-diphenyl-propionylamino)-4-methyl-pentanoylamino]-N-((1S,2S)-1-{(S)-5-amino-1-[(S)-1-carboxy-2-(1H-indol-3-yl)-ethylcarbamoyl]-pentylcarbamoyl}-2-methyl-butyl)-succinamic acid] (Ac-[Dip]LDIKW-OH) | > 10000 nM |
| CC[C@H](C)[C@H](NC(=O)[C@H](CC(=O)O)NC(=O)[C@H](CC(C)C)NC(=O)[C@H](NC(C)=O)C(c1ccccc1)c1ccccc1)C(=O)N[C@H](C(=O)N[C@@H](Cc1c[nH]c2ccccc12)C(N)=O)[C@@H](C)CC [(S)-3-[(S)-2-((S)-2-Acetylamino-3,3-diphenyl-propionylamino)-4-methyl-pentanoylamino]-N-((1S,2S)-1-{(1S,2S)-1-[(S)-1-carbamoyl-2-(1H-indol-3-yl)-ethylcarbamoyl]-2-methyl-butylcarbamoyl}-2-methyl-butyl)-succinamic acid] (Ac-[dDip]LDIIW-NH2) | 6000 nM |
| CC[C@H](C)[C@H](NC(=O)[C@H](CCCCN)NC(=O)[C@H](CC(=O)O)NC(=O)[C@H](CC(C)C)NC(=O)[C@H](NC(C)=O)C(c1ccccc1)c1ccccc1)C(=O)N[C@@H](Cc1c[nH]c2ccccc12)C(=O)O [(S)-3-[(S)-2-((S)-2-Acetylamino-3,3-diphenyl-propionylamino)-4-methyl-pentanoylamino]-N-((S)-5-amino-1-{(1S,2S)-1-[(S)-1-carboxy-2-(1H-indol-3-yl)-ethylcarbamoyl]-2-methyl-butylcarbamoyl}-pentyl)-succinamic acid] | > 10000 nM |
| CC[C@H](C)[C@H](NC(=O)[C@H](C)NC(=O)[C@H](CC(C)C)NC(=O)[C@@H](NC(C)=O)C(c1ccccc1)c1ccccc1)C(=O)N[C@H](C(=O)N[C@@H](Cc1c[nH]c2ccccc12)C(=O)O)[C@@H](C)CC [(S)-2-[(2S,3S)-2-((2S,3S)-2-{(S)-2-[(S)-2-((S)-2-Acetylamino-3,3-diphenyl-propionylamino)-4-methyl-pentanoylamino]-propionylamino}-3-methyl-pentanoylamino)-3-methyl-pentanoylamino]-3-(1H-indol-3-yl)-propionic acid] (Ac-[Dip]LAIIW-OH) | 70 nM |
| CC[C@H](C)[C@H](NC(=O)[C@H](CC(=O)O)NC(=O)[C@@H](Cc1ccccc1)NC(=O)[C@@H](NC(C)=O)C(c1ccccc1)c1ccccc1)C(=O)N[C@H](C(=O)N[C@@H](Cc1c[nH]c2ccccc12)C(=O)O)[C@@H](C)CC [(S)-3-[(R)-2-((S)-2-Acetylamino-3,3-diphenyl-propionylamino)-3-phenyl-propionylamino]-N-((1S,2S)-1-{(1S,2S)-1-[(S)-1-carboxy-2-(1H-indol-3-yl)-ethylcarbamoyl]-2-methyl-butylcarbamoyl}-2-methyl-butyl)-succinamic acid] | 520 nM |
